Results on 2 molecules are retold here after publication PMC10101059, “Rational Design of Stapled Antimicrobial Peptides to Enhance Stability and In Vivo Potency against Polymicrobial Sepsis” (Microbiology Spectrum, 2023).

The subject of one series is A. baumannii biofilm. The experiment in a line: Biofilm inhibition assay. It is filed as cell-based, Acinetobacter baumannii. The settings on record: 0.5× to 4× MIC. As to the method:
(i) Biofilm inhibition assay. Fifty μL of 2 × 10^6 CFU/mL A. baumannii bacterial suspension was added to a 96-well plate. Then, 50 μL of peptide/drug (various concentrations) was added, and the plate was incubated for 24 h. The residual solution was removed, and wells were washed, followed by treatment with 100% methanol for 15 min at room temperature. The methanol was then removed, and the wells were allowed to dry at room temperature. Next, the wells were incubated with 100 μL of 0.02% crystal violet for 30 min. After the incubation, the wells were washed with distilled water and dried for an appropriate length of time. Finally, 100 μL of 33% acetic acid was added to the wells for 1 h, followed by reading the absorbance at 595 nm ([55]).

The subject of the next series is MDR A. baumannii 1033. Briefly: Checkerboard microdilution assay (FICI). Type of series: cell-based, Acinetobacter baumannii. The note with it: for MIC: read-out: Single drug treatment MIC; for TP4-3 and meropenem combined MIC: MIC of each agent in combination. As to the method: (§1) The FICI was measured using a standard checkerboard microdilution assay ([57]). Two-fold dilutions of antibiotics were made across the x axis, and two-fold peptide dilutions were made across the y axis. Next, bacteria were added at 5 × 10^5 CFU/well (A. baumannii), followed by incubation at 37 ± 2°C for 16 to 20 h. FIC indices were calculated according to the following equations: FICI = FIC1 + FIC2; FIC1 = (MIC12 combined)/MIC1; FIC2 = (MIC12 combined)/MIC2. The combined efficacy was estimated as follows: FICI ≤ 0.5, synergistic; 0.5 to 1, additive; 1 to 2, indifferent; ≥2, antagonistic.
(In general: In broth dilution the organism is exposed to a series of concentrations in liquid medium.)

The test system of the next series is MDR A. baumannii 2088. Briefly: Checkerboard microdilution assay (FICI). Type of series: cell-based, Acinetobacter baumannii. The settings on record: for MIC: read-out: Single drug treatment MIC; for TP4-3 and meropenem combined MIC: MIC of each agent in combination. As to the method:
as §1

For the next series, the system named is MDR A. baumannii 2997. Briefly: Checkerboard microdilution assay (FICI). It is filed as cell-based, Acinetobacter baumannii. The settings on record: for MIC: read-out: Single drug treatment MIC; for TP4-3 and meropenem combined MIC: MIC of each agent in combination. As to the method:
as §1

In a further series the test system is MDR A. baumannii 3618. The experiment in a line: Checkerboard microdilution assay (FICI). The settings on record: for MIC: read-out: Single drug treatment MIC; for TP4-3 and meropenem combined MIC: MIC of each agent in combination. Type of series: cell-based, Acinetobacter baumannii. As to the method: as §1
The test system of a further series is S enterica. The experiment in a line: Checkerboard microdilution assay (FICI). Type of series: cell-based, Salmonella enterica. The settings on record: for TP4-3 and meropenem combined MIC: MIC of each agent in combination, TP4-3 and M.
Another series deals with Staphylococcus aureus. It is filed as cell-based. As to the method: The antimicrobial assay was performed according to a modified National Committee for Clinical Laboratory Standards (NCCLS) protocol ([41], [42]). Briefly, 5 × 10^5 CFU/mL bacterial cells were treated with various peptide concentrations and incubated at 37 ± 2°C for 16 to 20 h. The lowest concentration with clear wells was recorded as the MIC for each test molecule. The clear wells were further plated in Mueller-Hinton agar (MHA) plates, followed by incubation overnight at 37 ± 2°C. After plating, the lowest concentration at which no growth was observed was recorded as the MBC. For the serum sensitivity assay, the antimicrobial activity of the peptides was tested in medium containing 50% human serum ([43], [44]).

In a further series the test system is A. baumannii. The experiment in a line: SEM and TEM analysis. Type of series: cell-based, Acinetobacter baumannii. The note with it: 1× MIC. As to the method: The treated suspension was washed twice with 10 mM PBS (pH 7.4) followed by treatment with 4% glutaraldehyde. Next, the suspension was incubated for 30 min at 4°C. Following the incubation, the treated suspension was centrifuged (5,000 × g, 10 min), and the pellet was placed on a glass slide and allowed to attach for 30 min. The glass slide was then subjected to gradient ethanol washing from 0% to 100% ethanol. Finally, the glass slides were dried and coated with gold for imaging ([55]). For TEM, glutaraldehyde samples were cryoimmobilized and subjected to TEM imaging ([58], [59]).

Series [1] deals with human keratinocyte (HaCaT). The experiment in a line: alamarBlue cytotoxicity assay. It is filed as cell-based. The settings on record: at 3.13 μM, 24 h. As to the method:
(§2) (i) Cell culture. Human skin keratinocytes (HaCaT), human kidney (HK-2), and RAW 264.7 macrophage cells were obtained from the Bioresource Collection and Research Center (BCRC, Hsinchu, Taiwan). HaCaT and […] macrophage cells were cultured in Dulbecco’s modified Eagle’s medium (DMEM, Thermo Fischer, MA, USA.) supplemented with 10% FBS, penicillin (100 U/mL), and streptomycin (100 μg/mL) at 37°C under 5% CO2. HK-2 cells were cultured in glucose-free Keratinocyte serum-free medium (K-SFM) supplemented with 0.05 mg/mL bovine pituitary extract (BPE), 5 ng/mL EGF, 100 U/mL penicillin, and […] streptomycin at 37°C in 5% CO2 ([49]).
(§3) In vitro toxicity assay. The cytotoxicity of TP4-3 was evaluated by an alamarBlue assay. HaCaT, HK-2, and RAW 264.7 macrophage cells were seeded at densities of 1 × 10^4 cells/well in 96-well cell plates and treated with the indicated concentrations of TP4 and TP4-3 for 24 h (0.78 to 100 μM). Cells treated with 0.1% Triton X-100 and culture medium served as negative and positive-control groups, respectively. After incubation, the cells were washed and incubated for 2 h at 37°C with 90 μL Dulbecco’s modified Eagle medium (DMEM) containing 10 μL alamarBlue reagent. Fluorescence was recorded using a Spectra Max i3 Multi-Mode detection platform (Molecular Devices, San Jose, CA) to measure cell viability ([50], [51]).
For orientation: The colour change of resazurin is a common sign of viable cells or microbes.

The subject of a further series is human kidney cell (HK-2). The experiment in a line: alamarBlue cytotoxicity assay. It is filed as cell-based. The settings on record: at 3.13 μM, 24 h. As to the method: as §2, §3
Series [2] has as its system murine macrophage (RAW 264.7). The experiment in a line: alamarBlue cytotoxicity assay. The note with it: at 12.5 μM, 24 h. Type of series: cell-based. As to the method:
as §2, §3

The subject of the next series is female C57BL/6 mice. The experiment in a line: In vivo toxicity. As to the method:
The in vivo toxicity of TP4-3 was assessed in female C57BL/6 mice (BioLasco, Ilan, Taiwan) upon intravenous administration of TP4-3 (9, 45, and 60 mg/kg). […] All animals were monitored for 7 days. The number of dead animals and animal body weights were measured every 24 h. Seven days after the drug administration, blood samples were collected, and the animals were euthanized. ALT (GPT), AST (GOT), CRE, and BUN were analyzed using a dry-chemistry analyzer (Fujifilm DRI-CHEM 4000i) and commercially available kits (Fujifilm Corp., Tokyo, Japan) ([23], [54]). All animal experiments were approved by the institutional ethical committee (IACUC, Academia Sinica; ID no. 2021-12-1577 and 2021-12-1771).

One may read the MIC as the lowest concentration that inhibits growth of the organism. The MBC is the smallest concentration meeting the test's criterion for killing. A lower MBC goes with greater bactericidal potency.

Where two headings read alike, the source gives them in different places. Bridge positions count the residues as written; N and C are the ends. Square brackets hold non-standard residues; d marks the D form. Peptide text beside a SMILES is read from it. R5 = C=CCCC[C@@](C)(N)C(=O)O

`C[C@@H](O)[C@H]1C(=O)N2C(C(=O)O)=C(S[C@@H]3CN[C@H](C(=O)N(C)C)C3)[C@H](C)[C@H]12` [Meropenem]: in the series with A. baumannii biofilm, the “inhibition of biofilm (biomass) formation” value was “substantial inhibition of biomass formation”. The MIC is 200 µM in the series with MDR A. baumannii 1033 (Acinetobacter baumannii); 400 µM in the series on MDR A. baumannii 2088 (Acinetobacter baumannii); 200 µM with MDR A. baumannii 2997 (Acinetobacter baumannii); 200 µM in the series with MDR A. baumannii 3618 (Acinetobacter baumannii); 6.25 µM with S enterica (Salmonella enterica, read-out: Single drug treatment MIC). The “TP4-3 and meropenem combined MIC” value is given as 50 µM in the series on MDR A. baumannii 1033 (TP4-3 and M); 100 µM with MDR A. baumannii 2088 (TP4-3 and M); 12.5 µM in the series with MDR A. baumannii 2997 (TP4-3 and M); 25 µM in the series with MDR A. baumannii 3618 (TP4-3 and M); 0.19 µM in the series on S enterica.

Turning to `CC[C@H](C)[C@H](NC(=O)[C@@H](NC(=O)[C@@H](N)Cc1ccccc1)[C@@H](C)CC)C(=O)N[C@]1(C)CCCC=CCCC[C@](C)(C(=O)NCC(=O)N[C@@H](CC(C)C)C(=O)N[C@@H](Cc2ccccc2)C(=O)N[C@@H](CCCCN)C(=O)N[C@@H](CCCCN)C(=O)N[C@@H](CCCCN)C(=O)N[C@@H](C)C(=O)NCC(=O)N[C@@H](C)C(=O)N[C@]2(C)CCCC=CCCC[C@](C)(C(=O)N[C@H](C(=O)N[C@@H](CCCCN)C(=O)N[C@@H](CCCCN)C(=O)O)[C@@H](C)CC)NC(=O)[C@H](CCCCN)NC(=O)[C@H](CCCCN)NC(=O)[C@H](CCCCN)NC2=O)NC(=O)[C@H](CO)NC(=O)[C@H](CCCCN)NC(=O)[C@H](CCCCN)NC1=O` [TP4-3] (H-FII[R5]KKS[R5]GLFKKKAGA[R5]KKK[R5]IKK-OH; staple 4-8, 18-22; N-terminus and C-terminus assumed), the MBC in the series with Staphylococcus aureus is more than 25 µM. In addition, the MIC against Staphylococcus aureus is more than 25 µM; in the series on MDR A. baumannii 1033 it was 12.5 µM; in the series on MDR A. baumannii 2088, 6.25 µM; in the series with MDR A. baumannii 2997, 6.25 µM; in the series on MDR A. baumannii 3618, 12.5 µM. Besides, the “inhibition of biofilm (biomass) formation” value with A. baumannii biofilm is “substantial inhibition of biomass formation”. The “bacterial membrane architecture (SEM, TEM)” value with A. baumannii is given as “significant membrane deformation”. For the same molecule, the cell death (in series [1]; in the series with human kidney cell (HK-2); in series [2]) was less than 10% in each case. The “time to death after treatment” value in the series with female C57BL/6 mice (60 mg/kg i.v.) is reported as not above 10 min. Besides, the body weight result in the series on female C57BL/6 mice (i.v. 9 or 45 mg/kg, 7 days) is “No significant changes in body weight”. In addition, the survival entry in the series on female C57BL/6 mice (i.v. doses of 9 or 45 mg/kg, 7 days) is reported as “All treated animals survived”. Further, the “kidney (BUN, CRE) and liver (GOT, GPT) function markers” value with female C57BL/6 mice (i.v., TP4-3 up to 45 mg/kg, meropenem 10 mg/kg, day 7) was “no obvious effects”. The “TP4-3 and meropenem combined MIC” value stood at 3.13 µM with MDR A. baumannii 1033 (TP4-3 and D); 3.13 µM with MDR A. baumannii 1033 (TP4-3 and M); 3.13 µM with MDR A. baumannii 2088 (TP4-3 and D); 3.13 µM in the series with MDR A. baumannii 2088 (TP4-3 and M); 3.13 µM in the series on MDR A. baumannii 2997 (TP4-3 and D); 3.13 µM with MDR A. baumannii 2997 (TP4-3 and M). The “TP4-3 and meropenem combined MIC” value in the series with MDR A. baumannii 3618 (TP4-3 and D) is 3.13 µM; in the series with MDR A. baumannii 3618 (TP4-3 and M), 3.13 µM; with S enterica, 0.39 µM.
